Laboratory results as given in patent US20240141374A1, “ON DEMAND EXPRESSION OF EXOGENOUS FACTORS IN LYMPHOCYTES” (priority 0001, published 2024).

Columns and labels:
[1] = system: HIV recombinant strain NL43 that expresses GFP; assay: HIV NL43-GFP infection of primary CD4 T cells transduced with AGT111 at various MOI (Example 7); assay type: cell-based; details: 200 nM saquinavir
Procedure: Method: CD4 T cells were separated by negative selection and stimulated for 1 day with TransAct (CD3/CD28 beads) (Miltenyi Biotec) plus IL-2 (30 U/mL) (Thermo Fisher Scientific) and then transduced with lentivirus vector AGT111 (SEQ ID NO: 2) at various MOI.
One day later, cells were infected with 1 MOI of HIV recombinant strain NL43 that expresses GFP. […] As a control, HIV infected cells were treated with 200 nM saquinavir. At the end of the culture, cells were collected and analyzed by flow cytometry for GFP expression and with an APC anti-CD4 antibody. If the CD4 cell expresses GFP, it was infected by HIV.

HIV NL43-GFP [2] = assay: HIV NL43-GFP infection of PBMC transduced with sCD4 lentiviral vectors (Example 4); assay type: cell-based; details: columns NL43+sCD4 / NL43-sCD4-Ig / NL43-Saquinavir
Text: Method: On day 0, PBMC were depleted of CD8+ T cell and then stimulated with TransAct (CD3/CD28 beads) (MiltenyiBiotec). On day 1, PBMC were transduced with lentiviral vectors expressing sCD4 (SEQ ID NO: 8 (AGT116) and SEQ ID NO: 10 (AGT117)).
The components of the vectors are described in Table 2. The AGT116 vector (SEQ ID NO: 8) contains a sCD4 sequence (SEQ ID NO: 7) and an EF-1α promoter (SEQ ID NO: 14) upstream of the sCD4 sequence. The AGT117 vector (SEQ ID NO: 10) contains a sCD4-IgG1 Fc sequence (SEQ ID NO: 9) and an EF-1α promoter (SEQ ID NO: 14) upstream of the sCD4-IgG1 Fc sequence.
On day 2, the PBMC were infected with HIV NL43-GFP. On day 3, the cells were washed three times. Cells were then […]. On day 6, HIV-infected GFP positive cells were measured.

HIV NL43-GFP [3] = assay: HIV NL43-GFP infection of CD8-depleted, CD3/CD28-stimulated PBMC transduced with lentiviral vector encoding 3BNC117 (Example 3); assay type: cell-based; details: day six, FIG. 6
Text: Method: On day 0, PBMC were depleted of CD8+ T cells and then stimulated with TransAct (CD3/CD28 beads) (MiltenyiBiotec). On day 1, the PBMC were transduced with a lentiviral vectors expressing the broadly neutralizing antibody (bNAb) against HIV (SEQ ID NO:4; AGT112). The components of the vectors are described in Table 2. The AGT112 vector (SEQ ID NO: 4) contains a CMV promoter (SEQ ID NO: 13) that drives expression of a 3BNC117 antibody sequence that contains an IL-2 secretory sequence (SEQ ID NO: 74 (3BNC117 heavy variable chain (with IL-2 secretory sequence)) and SEQ ID NO: 75 (3BNC117 light variable chain (with IL-2 secretory sequence)). The IL-2 secretory sequence is SEQ ID NO: 11.
On day two (2), the PBMC were then infected with HIV NL43-GFP. On day three, cells were washed three times. On day six, HIV-infected GFP positive cells were measured. This protocol is shown in FIG. 5 but here LV-3BNC117 was substituted for LV-VRC01.

[4] = system: HIV Gag-specific CD4 T cells; assay: Antibody (IgG Fc) expression by HIV Gag-specific CD4 T cells after peptide stimulation (Example 5); assay type: cell-based, human; details: for cells positive for IgG Fc: MOI 5
Procedure: Method: To measure antibody expression by HIV Gag-specific CD4 T cells, HIV positive human peripheral blood mononuclear cells (PBMCs) were separated with Ficoll-Paque PLUS (GE Healthcare, Cat: 17-1440-02). Separated PBMCs (1×10^7) were stimulated with PepMix™ HIV (GAG) Ultra (Cat: PM-HIV-GAG, JPT Peptide Technologies) in 1 mL medium in a 24-well plate for 18 hours. CD8 T, γδ, NK, and B cells were depleted with PE labeled specific antibodies and anti-PE microbeads. The negatively selected cells were cultured at 2×10^6/mL in TexMACS GMP medium (Cat: 170-076-309, Miltenyi Biotec) containing IL7 (170-076-111, Miltenyi Biotec), IL15 (170-076-114, Miltenyi Biotec) and saquinavir (Cat: 4658, NIH AIDS Reagent Program). The lentivirus vector AGT111 (SEQ ID NO: 2) encoding anti-HIV antibody VRC01 or AGT112 (SEQ ID NO: 4) encoding anti-HIV antibody 3BNC117 was added 24 hours later at a multiplicity of infection (MOI) of 5.
Fresh medium containing IL7, IL15, and saquinavir was added every 2-3 days during cell expansion. The starting concentration of IL7 and IL15 was 10 ng/mL. On day 12-16, 2-3×10^6 cells were collected for peptide stimulation. The intracellular expression of IFNγ and IgG Fc was detected with a PE anti-IFNγ antibody and an APC anti-IgG1 Fc antibody (Biolegend).

[5] = system: HIV recombinant strain NL43 that expresses GFP; assay: HIV NL43-GFP infection of primary CD4 T cells transduced with AGT103 or AGT118 (Example 17); assay type: cell-based
Text: Method: CD4 T cells were separated by negative selection and stimulated for 1 day with TransAct (CD3/CD28 beads) (Miltenyi Biotec) plus IL-2 (30 U/mL) (Thermo Fisher Scientific) and then transduced with lentivirus AGT103 (SEQ ID NO: 78) or AGT118 (SEQ ID NO: 80) at a MOI of 5. The AGT103 vector (SEQ ID NO: 78) contains an EF-1α promoter (SEQ ID NO: 14) that drives expression of the miR30-CCR5/miR21-Vif/mir185-Tat microRNA cluster sequence (SEQ ID NO: 65) (miR30-CCR5/miR21-Vif/miR185-Tat microRNA cluster sequence). The miR30-CCR5 sequence is SEQ ID NO: 62. The miR21-Vif sequence is SEQ ID NO: 63. The miR185-Tat sequence is SEQ ID NO: 64. The AGT118 vector (SEQ ID NO: 80) contains an EF-1α promoter (SEQ ID NO: 14) that drives expression of sCD4(D1+D2)-IgG1 Fc (SEQ ID NO: 9) and the miR30-CCR5/miR21-Vif/miR185-Tat microRNA cluster sequence (SEQ ID NO: 65).
One day later, cells were infected with 1 MOI of HIV recombinant strain NL43 that expresses GFP. After 24 hours, CD3/CD28 beads, lentivirus and HIV were removed by washing 3 times with PBS and cultured in RPMI 1640 medium (Thermo Fisher Scientific) containing 10% FBS (Gemini Bio) and 1% Pen-Strep (Thermo Fisher Scientific) with IL-2 (30 U/mL) in a 37° C. incubator at 5% C02 for 7 days with medium supplementation as needed. At the end of the culture, cells were collected and analyzed by flow cytometry. […]

**Q.** Which results are given for CC(C)(C)NC(=O)[C@@H]1C[C@@H]2CCCC[C@@H]2CN1C[C@@H](O)[C@H](Cc1ccccc1)NC(=O)[C@H](CC(N)=O)NC(=O)c1ccc2ccccc2n1 [Saquinavir, saquinavir]?
**A.** percentage of GFP positive cells ([1]; day 5): 0.19%; percentage of GFP positive cells ([1]; day 7): 0.22%; percentage of GFP positive cells ([1]; day 9): 0.24%; percent of GFP positive cells (HIV NL43-GFP [2]; FIG. 8A bottom row): 0.017%; percent of GFP positive cells (HIV NL43-GFP [2]; FIG. 8B bottom row): 0.026%; GFP positive cells (HIV NL43-GFP [3]; NY025 donor): 0.025%; GFP positive cells (HIV NL43-GFP [3]; NY026 donor): 2.43E-3%

B1: 3BNC117: human IgG1 monoclonal antibody targeting the CD4 binding site on HIV gp160; expressed in cells from vector AGT112 (protein)
chain 1: MYRMQLLSCIALSLALVTQVQLLQSGAAVTKPGASVRVSCEASGYNIRDYFIHWWRQAPGQGLQWVGWINPKTGQPNNPRQFQGRVSLTRHASWDFDTFSFYMDLKALRSDDTAVYFCARQRSDYWDFDVWGSGTQVTVSSASTKGP
chain 2: MYRMQLLSCIALSLALVTDIQMTQSPSSLSASVGDTVTITCQANGYLNWYQQRRGKAPKLLIYDGSKLERGVPSRFSGRRWGQEYNLTINNLQPEDIATYFCQVYEFVVPGTRLDLKRTVAAP
modifications: constant regions lack entries; misc_feature 1..441 3BNC117 Heavy Variable Chain (with IL-2 secretory signal); misc_feature 1..369 3BNC117 Light Variable Chain (with IL-2 secretory signal)
notes: expressed in cells from vector AGT112
**Q.** What does the source list for B1?
**A.** increase in fluorescence intensity of IgG relative to DMSO treated cells ([4]; Gag PepMix vs DMSO): approximately 10 fold; cells positive for IgG Fc ([4]; stimulation with Gag PepMix on day 12): 1.58%; cells positive for IgG Fc ([4]; treated with DMSO (no peptide)): 0.13%; GFP positive cells (HIV NL43-GFP [3]; NY025 donor): 1.79%; GFP positive cells (HIV NL43-GFP [3]; NY026 donor): 0.30%

B2: AGT103: Vector encoding inhibitory RNA sequences targeting CCR5 and HIV Vif/Tat with EF-1α promoter (SEQ ID NO: 78) (nucleic acid)
DNA: CCGGTGCCTAGAGAAGGTGGCGCGGGGTAAACTGGGAAAGTGATGTCGTGTACTGGCTCCGCCTTTTTCCCGAGGGTGGGGGAGAACCGTATATAAGTGCAGTAGTCGCCGTGAACGTTCTTTTTCGCAACGGGTTTGCCGCCAGAACACAGGTAAGTGCCGTGTGTGGTTCCCGCGGGCCTGGCCTCTTTACGGGTTATGGCCCTTGCGTGCCTTGAATTACTTCCACGCCCCTGGCTGCAGTACGTGATTCTTGATCCCGAGCTTCGGGTTGGAAGTGGGTGGGAGAGTTCGAGGCCTTGCGCTTAAGGAGCCCCTTCGCCTCGTGCTTGAGTTGAGGCCTGGCCTGGGCGCTGGGGCCGCCGCGTGCGAATCTGGTGGCACCTTCGCGCCTGTCTCGCTGCTTTCGATAAGTCTCTAGCCATTTAAAATTTTTGATGACCTGCTGCGACGCTTTTTTTCTGGCAAGATAGTCTTGTAAATGCGGGCCAAGATCTGCACACTGGTATTTCGGTTTTTGGGGCCGCGGGCGGCGACGGGGCCCGTGCGTCCCAGCGCACATGTTCGGCGAGGCGGGGCCTGCGAGCGCGGCCACCGAGAATCGGACGGGGGTAGTCTCAAGCTGGCCGGCCTGCTCTGGTGCCTGGCCTCGCGCCGCCGTGTATCGCCCCGCCCTGGGCGGCAAGGCTGGCCCGGTCGGCACCAGTTGCGTGAGCGGAAAGATGGCCGCTTCCCGGCCCTGCTGCAGGGAGCTCAAAATGGAGGACGCGGCGCTCGGGAGAGCGGGCGGGTGAGTCACCCACACAAAGGAAAAGGGCCTTTCCGTCCTCAGCCGTCGCTTCATGTGACTCCACGGAGTACCGGGCGCCGTCCAGGCACCTCGATTAGTTCTCGAGCTTTTGGAGTACGTCGTCTTTAGGTTGGGGGGAGGGGTTTTATGCGATGGAGTTTCCCCACACTGAGTGGGTGGAGACTGAAGTTAGGCCAGCTTGGCACTTGATGTAATTCTCCTTGGAATTTGCCCTTTTTGAGTTTGGATCTTGGTTCATTCTCAAGCCTCAGACAGTGGTTCAAAGTTTTTTTCTTCCATTTCAGGTGTCGTGATGTACAAGGTATATTGCTGTTGACAGTGAGCGACTGTAAACTGAGCTTGCTCTACTGTGAAGCCACAGATGGGTAGAGCAAGCACAGTTTACCGCTGCCTACTGCCTCGGACTTCAAGGGGCTTCCCGGGCATCTCCATGGCTGTACCACCTTGTCGGGGGATGTGTACTTCTGAACTTGTGTTGAATCTCATGGAGTTCAGAAGAACACATCCGCACTGACATTTTGGTATCTTTCATCTGACCAGCTAGCGGGCCTGGCTCGAGCAGGGGGCGAGGGATTCCGCTTCTTCCTGCCATAGCGTGGTCCCCTCCCCTATGGCAGGCAGAAGCGGCACCTTCCCTCCCAATGACCGCGTCTTCGTC
modifications: misc_feature 1..1469 AGT103
**Q.** With B2 as the molecule, how does the “cells HIV positive” value ([5]; primary CD4 T cells, MOI of 5) read?
**A.** Its value is 0.86%.

**Q.** And the “decrease in HIV infection” value ([5]; vs control treated cells)?
**A.** Its value is 75.6%.
